From PMC11937066, “Abemaciclib in combination with therapies for patients with metastatic breast cancer: a phase 1b study” (Frontiers in Oncology, 2025)
Read-outs that look alike come from different tables or passages of the source. Values belong to the compound of their own block, whether it stands above or below them.

Tests used:
[1] = system: patients with HR+, HER2- or HER2+ metastatic breast cancer; assay: Patient disposition and dose adjustments; details: Part G, with abemaciclib and fulvestrant
[2] = system: HER2+ breast cancer; details: abemaciclib combined with fulvestrant and trastuzumab versus standard of care chemotherapy plus trastuzumab; cited from earlier work
[3] = Plasma pharmacokinetics, noncompartmental analysis (LC-MS/MS); format: in vivo, human
Method: In parts E, F, and H, PK sampling was performed for all analytes pre-dose on Cycle 1 Day 1, Cycle 1 Day 15, and Cycle 2 Day 1, as well as at 1, 2, 4, 6, 8, and 10 hours after dosing on Cycle 1 Day 1 and Cycle 2 Day 1. In Part H, PK sampling was performed for all analytes pre-dose on Cycle 1 Day 1, Cycle 1 Day 15, and Cycle 2 Day 1, as well as at 1, 2, 4, 6, 8, and 10 hours after dosing on Cycle 1 Day 1 and 2, 4, 6, 8, and 10 hours after dosing on Cycle 2 Day 1. In Parts F and H, additional samples were drawn pre-dose on Day 1 of Cycles 3–5 and after trastuzumab infusion on Day 1 of Cycles 1–5. In part H, additional samples were also drawn after pertuzumab infusion on Day 1 Cycle 4 and 5. In Part G, an additional pre-dose sample was drawn on Cycle 3 Day 1, and fulvestrant samples were obtained pre-dose on Day 1 of Cycles 1–3 and Day 15 of Cycle 1.
Samples were analyzed for abemaciclib (and its metabolites), exemestane, everolimus, fulvestrant, LY3023414, and pertuzumab using a validated liquid chromatography-tandem mass spectrometry method (abemaciclib and metabolites: Q^2 solutions, Ithaca, NY, USA; exemestane and everolimus: BASi, West Lafayette, IN, USA; fulvestrant: Charles River Laboratories, Montreal, Quebec, Canada; LY3023414: Covance Laboratories Inc, Madison, WI, USA; pertuzumab: Altasciences Company Inc., Quebec, Canada). Trastuzumab was analyzed using a validated Gyrolab xP method (PPD, Richmond, VA, USA).
Standard noncompartmental PK parameters were computed using Phoenix WinNonlin 64 Build 8.0/8.1 (Pharsight Corporation, Mountain View, CA, USA). This analysis included estimation of Cmax, tmax, Clast, tlast, and AUC0-tlast. AUC calculations were performed using the log linear trapezoidal method.

[4] = system: HR+ advanced breast cancer; parameters: method as in PMID 32887722; details: in combination with ribociclib and fulvestrant; cited from earlier work
[5] = system: PIK3CA-mutated, HR+, HER2- ABC; parameters: method as in doi:10.1158/1538-7445.SABCS23-GS03-13; details: with fulvestrant and palbociclib, first-line treatment; cited from earlier work

LY3023414 dose adjustments ([1]; 12 patients): 10 patients
LY3023414 dose omission ([1]; 12 patients): eight
LY3023414 dose reduction ([1]; 12 patients): seven
Compound: CO[C@@H](C)Cn1c(=O)n(C)c2cnc3ccc(-c4cncc(C(C)(C)O)c4)cc3c21 [LY3023414]
Additional patients who discontinued LY3023414 due to AEs [1]: two

mean accumulation ratio (based on Cmax) ([3]; Part E Cohort 1, abemaciclib 150 mg Q12H with exemestane + everolimus): 3.16
mean AUC0-tlast ([3]; Part E Cohort 1, multiple doses abemaciclib 150 mg Q12H with exemestane + everolimus): 3280 hr^*ng/mL
mean AUC0-tlast ([3]; Part E Cohort 1, single dose abemaciclib 150 mg with exemestane + everolimus): 771 hr^*ng/mL
mean AUC0-tlast ([3]; Part E Cohort 2, single dose abemaciclib 200 mg with exemestane + everolimus): 984 hr^*ng/mL
accumulation ratio based on Cmax ([3]; Part F, abemaciclib 150 mg Q12H with trastuzumab): 2.13
mean AUC0-tlast ([3]; Part H, single dose abemaciclib 100 mg with trastuzumab and pertuzumab): 343 hr^*ng/mL
Effect on the pharmacokinetics of the combination study drugs ([3]; Parts E–H): no effect
Abemaciclib exposures compared with monotherapy PK data ([3]; all combination therapies tested): consistent with monotherapy PK data
Cmax ([3]; human, plasma, oral, 100 mg, Part H, single dose abemaciclib 100 mg with trastuzumab and pertuzumab, read-out: mean Cmax): 71.5 ng/mL
Cmax ([3]; human, plasma, oral, 150 mg, Part E Cohort 1, multiple doses abemaciclib 150 mg Q12H with exemestane + everolimus, read-out: mean Cmax): 452 ng/mL
Cmax ([3]; human, plasma, oral, 150 mg, Part E Cohort 1, single dose abemaciclib 150 mg with exemestane + everolimus, plasma, read-out: mean Cmax): 157 ng/mL
Cmax ([3]; human, plasma, oral, 150 mg, Part F, abemaciclib 150 mg Q12H with trastuzumab, read-out: steady-state mean Cmax): 242 ng/mL
Cmax ([3]; human, plasma, oral, 200 mg, Part E Cohort 2, single dose abemaciclib 200 mg with exemestane + everolimus, plasma, read-out: mean Cmax): 191 ng/mL
Cmax ([3]; human, plasma, oral, Part F, single dose abemaciclib (150 mg or 200 mg) with trastuzumab, range over dose cohorts, read-out: mean Cmax): 133 to 148 ng/mL
Cmax ([3]; human, plasma, oral, Part G, single dose 150 mg abemaciclib with 500 mg fulvestrant and 100 mg or 150 mg LY3023414, range over cohorts, read-out: abemaciclib mean Cmax): 131 to 139 ng/mL
AUC(0-t) ([3]; human, plasma, oral, Part F, abemaciclib 150 mg Q12H with trastuzumab, read-out: steady-state mean AUC0-tlast): 1660 ng·h/mL
Compound: CCN1CCN(Cc2ccc(Nc3ncc(F)c(-c4cc(F)c5nc(C)n(C(C)C)c5c4)n3)nc2)CC1 [abemaciclib]
Progression-free survival [2]: significantly improved

Compound: Cc1nc(NC(=O)N2CCC[C@H]2C(N)=O)sc1-c1ccnc(C(C)(C)C(F)(F)F)c1 [alpelisib]
Feasibility of the combination [4]: not to be feasible due to toxicity

Compound: Nc1cc(C(F)(F)F)c(-c2cc(N3CCOCC3)nc(N3CCOCC3)n2)cn1 [buparlisib]
Feasibility of the combination [4]: not to be feasible due to toxicity

Compound: C[C@H](Nc1ccc2c(c1)OCCn1cc(N3C(=O)OC[C@H]3C(F)F)nc1-2)C(N)=O [inavolisib]
Progression-free survival [5]: statistically significant improvement
